We go through 53 compounds from PMC8869358, “High-Throughput Chemical Screening and Structure-Based Models to Predict hERG Inhibition” (Biology, 2022).

Molecules are shown by their SMILES. Where a name gives a salt, the structure may show the parent alone.

The term IC50 denotes the concentration needed to halve the response being measured. Low readings indicate inhibition by little substance, high ones a need for much substance.

In this test the target is hERG (Homo sapiens, UniProt Q12809). The experiment in a line: cell-based. The settings on record: (-LOG10(IC50), µM).
Sequence of hERG (Q12809 whole entry): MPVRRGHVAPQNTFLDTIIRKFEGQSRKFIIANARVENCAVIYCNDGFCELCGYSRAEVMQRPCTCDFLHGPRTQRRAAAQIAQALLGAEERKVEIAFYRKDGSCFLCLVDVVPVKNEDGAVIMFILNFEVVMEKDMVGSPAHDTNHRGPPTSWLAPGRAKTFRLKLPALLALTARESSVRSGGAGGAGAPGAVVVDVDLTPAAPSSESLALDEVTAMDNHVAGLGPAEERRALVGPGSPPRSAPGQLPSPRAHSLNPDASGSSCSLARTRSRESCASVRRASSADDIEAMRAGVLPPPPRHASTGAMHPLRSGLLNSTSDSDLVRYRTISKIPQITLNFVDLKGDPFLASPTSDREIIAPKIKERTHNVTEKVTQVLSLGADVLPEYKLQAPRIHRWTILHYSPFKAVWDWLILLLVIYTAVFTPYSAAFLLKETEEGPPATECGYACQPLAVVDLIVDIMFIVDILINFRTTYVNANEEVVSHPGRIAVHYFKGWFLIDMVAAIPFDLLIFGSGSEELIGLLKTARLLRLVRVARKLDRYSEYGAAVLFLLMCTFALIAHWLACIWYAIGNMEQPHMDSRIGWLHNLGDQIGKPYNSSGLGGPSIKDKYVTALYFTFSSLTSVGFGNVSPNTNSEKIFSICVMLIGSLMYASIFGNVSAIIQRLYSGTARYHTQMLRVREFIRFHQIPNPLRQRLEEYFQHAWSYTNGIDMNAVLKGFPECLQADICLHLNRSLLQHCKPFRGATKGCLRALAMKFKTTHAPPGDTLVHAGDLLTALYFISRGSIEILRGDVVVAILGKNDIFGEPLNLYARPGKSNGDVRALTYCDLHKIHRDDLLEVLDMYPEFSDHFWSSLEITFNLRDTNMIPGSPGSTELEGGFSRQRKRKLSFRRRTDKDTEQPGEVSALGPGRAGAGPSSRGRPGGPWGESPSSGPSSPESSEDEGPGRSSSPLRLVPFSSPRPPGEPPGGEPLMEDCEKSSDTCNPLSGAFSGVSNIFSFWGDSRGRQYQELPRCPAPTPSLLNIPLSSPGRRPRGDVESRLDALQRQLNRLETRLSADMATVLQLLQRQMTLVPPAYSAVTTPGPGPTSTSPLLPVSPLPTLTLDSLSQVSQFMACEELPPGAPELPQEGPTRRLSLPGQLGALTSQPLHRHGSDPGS
In turn, `c1ccc2c(c1)Oc1ccccc1S2` [Phenoxathiin] showed an IC50 of 24.5 µM.
Consider `O=C(Oc1ccccc1)c1ccc2ccccc2c1O` [Phenyl 1-hydroxy-2-naphthoate], for which inhibition was half-maximal at 49 µM (IC50).
In the case of `CN(C)CCOc1ccccc1Cc1ccccc1` [Phenyltoloxamine citrate], the IC50 is 8.49 µM. This IC50 is about 5.8-fold lower than that of the compound before.
As to `CCOP(=S)(OCC)SCn1c(=O)oc2cc(Cl)ccc21` [Phosalone], the midpoint of inhibition, the IC50, lay at 23.5 µM.
Regarding `CN1CCC(=C2c3ccccc3Sc3ccccc32)CC1` [Pimethixene maleate], inhibition was half-maximal at 9.89 µM (IC50).
As to `COc1cc2c(cc1OC)C(C(C(=O)N(CCc1ccc(OC)c(OC)c1OC)CCc1ccc(OC)c(OC)c1OC)c1ccccc1)=NCC2` (centres unmarked) [Pinokalant hydrochloride], the IC50 was 20.1 µM.
Under `NC(=O)C1(N2CCCCC2)CCN(CCCC(=O)c2ccc(F)cc2)CC1` [Pipamperone dihydrochloride] stands 20.1 µM; under `CC(=O)c1ccc2c(c1)N(CCCN1CCC(CCO)CC1)c1ccccc1S2` [Piperacetazine], 2.39 µM; under `CCCCCCCC[S+]([O-])C(C)Cc1ccc2c(c1)OCO2` (centres unmarked) [Piperonyl sulfoxide], 38.2 µM.
On to `O=C1OC(CCN2CCCCC2)OC1(c1ccccc1)c1ccccc1` (centres unmarked) [Pipoxolan hydrochloride], for which the IC50 is 1.25 µM.
The compound `Cc1nc2ccccn2c(=O)c1CCN1CCC(C(=O)c2ccc(F)cc2)CC1` [Pirenperone] showed an IC50 of 6.74 µM.
For `CCN(CC)c1nc(C)cc(OP(=S)(OC)OC)n1` [Pirimiphos-methyl], inhibition was half-maximal at 50.9 µM (IC50).
Under `CN1CCC(=C2c3ccccc3CCc3sccc32)CC1` [Pizotyline] stands 10.3 µM; under `CCCCCCCCCCCCOCCOCCOCCOCCOCCOCCOCCOCCOCCO` [Polyoxyethylene (9) lauryl ether], 21.3 µM; under `CN1C(CSCC(F)(F)F)Nc2cc(Cl)c(S(N)(=O)=O)cc2S1(=O)=O` (centres unmarked) [Polythiazide], 19.7 µM.
Under `CC[C@@H]([C@H](C)O)n1ncn(-c2ccc(N3CCN(c4ccc(OC[C@@H]5CO[C@@](Cn6cncn6)(c6ccc(F)cc6F)C5)cc4)CC3)cc2)c1=O` [Posaconazole] stands 12.9 µM.
Under `NC(=O)c1nc(-c2cccc(-c3cc(F)ccc3OCC(F)(F)C(F)(F)F)c2)n[nH]1` [Potassium 5-carbamoyl-3-[5'-fluoro-2'-(2,2,3,3,3-pentafluoropropoxy)-3-biphenylyl]-1,2,4-triazol-1-ide hydrate (1:1:1)] stands 47.1 µM; under `O=C(N[C@H]1N=C(c2ccccc2F)c2cccc3c2N(CC3)C1=O)c1cc2ccccc2[nH]1` [Pranazepide], 7.86 µM.
As to `O=C1CN=C(c2ccccc2)c2cc(Cl)ccc2N1CC1CC1` [Prazepam], the IC50 was 23 µM. This IC50 is about 2.9-fold higher than that of the compound before.
Under `CC[N+]1(CC)CCC(=C(c2ccccc2)c2ccccc2)C1C` (centres unmarked) [Prifinium bromide] stands 20.5 µM.
Compound `CCCC(C(=O)OCCN(CC)CC)(c1ccccc1)c1ccccc1` [Proadifen hydrochloride] had an IC50 of 7.28 µM. This IC50 lies about 2.8-fold lower than the previous one.
In turn, `CCCN(CCOc1c(Cl)cc(Cl)cc1Cl)C(=O)n1ccnc1` [Prochloraz] gave an IC50 of 20.3 µM.
Under `CCCN(CCC)c1c([N+](=O)[O-])cc(C(F)(F)F)c(N)c1[N+](=O)[O-]` [Prodiamine] stands 37.3 µM; under `CCCN(CCC)C(=O)C(CCC(=O)OCCCN1CCN(CCOC(=O)Cc2c(C)n(C(=O)c3ccc(Cl)cc3)c3ccc(OC)cc23)CC1)NC(=O)c1ccccc1` (centres unmarked) [Proglumetacin], 0.365 µM; under `[H]/N=C(\N/C(=N/[H])Nc1ccc(Cl)cc1)NC(C)C` [Proguanil hydrochloride], 20.1 µM.
In the case of `CN(C)CCCN1c2ccccc2Sc2ccccc21` [Promazine hydrochloride], half-maximal inhibition (IC50) required 9.52 µM.
Consider `CC(CN1c2ccccc2Sc2ccccc21)N(C)C` (centres unmarked) [Promethazine hydrochloride], for which the IC50 is 23 µM.
`CC(CN1c2ccccc2Sc2ccccc21)N(C)C` (centres unmarked) [Promethazine] showed a half-inhibitory concentration (IC50) of 19.7 µM.
Under `C#CCOS(=O)OC1CCCCC1Oc1ccc(C(C)(C)C)cc1` (centres unmarked) [Propargite] stands 20.7 µM; under `CCC(=O)c1ccc2c(c1)N(CCCN(C)C)c1ccccc1S2` [Propionylpromazine hydrochloride], 9.16 µM.
Under `CCCOC(C(=O)OC1CCN(C)CC1)(c1ccccc1)c1ccccc1` [Propiverine hydrochloride] stands 14.2 µM; under `O=C(CCN1CCC(c2ccccc2)C1)c1ccc2c(c1)OCCO2` (centres unmarked) [Proroxan], 17.6 µM.
Under `CCCSSC(CCO)=C(C)N(C=O)Cc1cnc(C)nc1N` [Prosultiamine] stands 10.7 µM; under `CNCCCC1c2ccccc2C=Cc2ccccc21` [Protriptyline hydrochloride], 23.9 µM.
In turn, `CCOC(=O)COc1cc(-c2nn(C)c(OC(F)F)c2Cl)c(F)cc1Cl` [Pyraflufen-ethyl] showed an IC50 of 33.4 µM.
As to `CCOC(=O)c1cn2nc(OP(=S)(OCC)OCC)cc2nc1C` [Pyrazophos], the IC50 was 51.9 µM.
Under `COc1ccc(CN(CCN(C)C)c2ccccn2)cc1` [Pyrilamine maleate] stands 20.9 µM.
As for `COc1ccc(CN(CCN(C)C)c2ccccn2)cc1` [Pyrilamine], the IC50 is 27.4 µM.
In the case of `CC(COc1ccc(Oc2ccccc2)cc1)Oc1ccccn1` (centres unmarked) [Pyriproxyfen], the IC50 was 21 µM. The IC50 values of the last two compounds are within 1.5-fold of each other.
`Fc1ccc(Oc2ccnc3cc(Cl)cc(Cl)c23)cc1` [Quinoxyfen] showed an IC50 of 22.7 µM. This IC50 and that of the compound before are within 1.5-fold of each other.
Turning to `CCOC(=O)C(C)Oc1ccc(Oc2cnc3cc(Cl)ccc3n2)cc1` (centres unmarked) [Quizalofop-ethyl], the IC50 was 17.1 µM.
Regarding `Cn1cc(C(=O)[C@@H]2CCc3nc[nH]c3C2)c2ccccc21` [Ramosetron hydrochloride], the IC50 was 20.5 µM.
Under `COC(=O)[C@H]1[C@H]2C[C@@H]3c4[nH]c5cc(OC)ccc5c4CCN3C[C@H]2C[C@@H](OC(=O)/C=C/c2ccc(O)c(OC)c2)[C@@H]1OC` [Rescimetol] stands 1.57 µM.
As for `COC(=O)[C@H]1[C@H]2C[C@@H]3c4[nH]c5cc(OC)ccc5c4CCN3C[C@H]2C[C@@H](OC(=O)c2cc(OC)c(OC)c(OC)c2)[C@@H]1OC` [Reserpine], it took 9.16 µM to reach half-maximal inhibition (IC50).
Compound `C[C@@H]1CN(CCCn2c3ccccc3c3ccccc32)C[C@H](C)N1` [Rimcazole dihydrochloride] had an IC50 of 7.86 µM. This IC50 and that of the compound before are within 1.5-fold of each other.
Under `Cc1c(C(=O)NN2CCCCC2)nn(-c2ccc(Cl)cc2Cl)c1-c1ccc(Cl)cc1` [Rimonabant] stands 3.25 µM; under `O=C(CCCCCCCCc1cccnc1)N1CCC(C=C(c2ccccc2)c2ccccc2)CC1` [Ro 23-7637], 11 µM; under `N=C(N/N=C/c1ccc(Cl)cc1)N/N=C/c1ccc(Cl)cc1` [Robenidine], 1.69 µM.
Compound `CCCN(CCc1cccs1)[C@H]1CCc2c(O)cccc2C1` [Rotigotine] showed a concentration for half-maximal inhibition (IC50) of 3.01 µM.
Under `Oc1ccc2[nH]cc(CCCCN3CC=C(c4ccccc4)CC3)c2c1` [Roxindole] stands 3.38 µM; under `C=CCC1=C(C)[C@@H](OC(=O)[C@@H]2[C@@H](C=C(C)C)C2(C)C)CC1=O` [S-Bioallethrin], 23.6 µM; under `CC(=O)NC1(c2cccc(F)c2)CCN(CC[C@@]2(c3ccc(Cl)c(Cl)c3)CN(c3ccccc3)C(=O)CO2)CC1` [SAR102779], 9.08 µM.
Under `CCOC(=O)c1ccc([C@H]2CC[C@H](NC[C@H](O)COc3ccc(O)c(NS(C)(=O)=O)c3)CC2)cc1` [SAR 150640] stands 28.5 µM.
